{
  "source": "paper PMC11234460",
  "about": "“In Silico Discovery of Stapled Peptide Inhibitor Targeting the Nur77‐PPARγ Interaction and Its Anti‐Breast‐Cancer Efficacy” (Advanced Science, 2024)",
  "key": {"Solubility test in PBS": {"assay": "Solubility test in PBS", "format": "physicochemical", "conditions": "1 mg in 50 µL, gradient diluted from 20 to 0.078125 mg mL^−1, OD at 600 nm (turbidity), plate reader", "experimental": "Mix 1 mg ST‐CY14 or Csn‐B (Shanghai Sunny Biotech) in 50 µL PBS buffer, and then transfer 40 µL the suspension to a 96‐well plate. The suspension was gradient diluted from 20 to 0. 07 8125 mg mL^−1. OD values were measured at 600 nm on a Cytation 5 (Biotek, USA) plate reader. PBS was set as a blank control."}, "[1]": {"assay": "CD spectroscopy, α-helicity", "format": "physicochemical", "conditions": "5 × 10^−5 M peptide in H2O, 25 °C, 1 mm cuvette, 185-260 nm", "experimental": "The detection wavelengths of the peptides were 214 and 254 nm. Solvent A: H2O (containing 0.1% TFA) and solvent B: acetonitrile (containing 0.1% TFA) were used as solvents in linear gradient mixtures. Peptide purification was performed by semi‐preparative HPLC using an XBridge Prep C18 column (19 × 250 mm, 10 µm particle size, flow rate of 20 mL min^−1). Solvents A and B were the same as those in the peptide analysis procedure. The peptides were dissolved in H2O to a final concentration of 5 × 10^−5 M. The purified peptide was detected using a mass spectrometer (6410 Triple Quad LC/MS, Agilent, USA) (Table S2, Supporting Information). The solvent was 80% methanol and 20% H2O (containing 0.1% formic acid). The CD spectra were obtained with a 1 mm quartz cuvette on a BRIGHT TIME Chirasca (Applied Photophysics, Britain) spectropolarimeter with a scan wavelength between 185–260 nm at 25 °C. The helicity of each peptide was calculated by the literature equation.^[ [24] ^]"}, "Nur77-PPARγ complex": {"biological_target": "T1, Nur77-PPARγ complex (Homo sapiens, UniProt P22736)", "T1 construct": "expressed in transfected cells; host or cells: HEK293T", "assay": "NanoBiT assay of Nur77-PPARγ complex formation in HEK293T cells", "format": "cell-based", "conditions": "1 × 10^−5 M peptide, 1 h, n = 3", "experimental": "HEK293T cells were seeded in a poly‐d‐lysine‐coated black 96‐well cell culture plate at 10 000 cells per well in 100 µL culture medium. The next day, the master mix of 100 ng receptor construct containing the PPARγ‐LargeBit and SmallBit‐Nur77 plasmids (w/w, 50 ng:50 ng) was diluted in Opti‐MEM Medium (Gibco, 11058‐021), then P3000 Reagent was added. Meanwhile, 0.15 µL Lipofectamine 3000 reagent (ThermoFisher, L3000015) was added to 5 µL Opti‐MEM Medium. Subsequently, diluted DNA was added to Lipofectamine 3000 reagent (V/V, 1:1) and incubated for 15 min at room temperature. A mixture containing the above plasmids and Lipofectamine 3000 was prepared and added to each well. After 24 h, the cells were treated with 1 × 10^−5 M peptides (TAT, T‐CY14, S‐CY14, and ST‐CY14) or variable concentrations of ST‐CY‐14 (0.1/0.2/0.5/1/2/5/10/20/40 × 10^−6 M) for 1 h. The culture medium was replaced with 90 µL Tyrode's solution (Solarbio, T1420). Then, 10 µL furimazine (5 × 10^−5 M) was added to each well and the luminescence signal was measured every 86 s for 1 h at 37 °C."}, "α-chymotrypsin": {"system": "α-chymotrypsin", "assay": "Protease stability in α-chymotrypsin solution", "format": "in vitro ADME", "conditions": "α-chymotrypsin solution; α-chymotrypsin 0.5 ng µL^−1 in PBS (5 × 10^−2 M, 2 × 10^−3 M CaCl2, pH 7.4); 100 µL of 1 × 10^−3 M peptide + 1 mL enzyme; room temperature; 5-480 min; quenched with 1 M HCl; analytical HPLC at 214 nm", "experimental": "The peptides were dissolved in PBS (pH 7.4) to a final concentration of 1 × 10^−3 M. α‐Chymotrypsin was dissolved in PBS (5 × 10^−2 M, containing 2 × 10^−3 M CaCl2, pH 7.4) to a final concentration of 0.5 ng µL^−1. Subsequently, 100 µL peptides were incubated with α‐chymotrypsin (1 mL) at room temperature, and 100 µL of the digestion mixture was collected at different times (5/10/20/30/60/120/240/480 min) and added to a centrifuge tube containing 20 µL of 1 M HCl to quench the enzymatic reaction. The solution of α‐Chymotrypsin peptide fragments was monitored by analytical HPLC to determine the fraction of protease degradation at 214 nm."}, "MDA-MB-231 cells [2]": {"system": "MDA-MB-231 cells", "assay": "Western blot of Nur77, CD36 and FABP4", "format": "cell-based", "experimental": "(§1) MCF7 and MDA‐MB‐231 cells were treated with various concentrations of peptide. The cells were then collected and lysed in NP40 lysis buffer. Total protein was quantified using a BCA assay kit (Beyotime, P0010S). The proteins were separated by SDS‐PAGE and transferred onto a PVDF membrane. The PVDF membrane was blocked in TBST containing 5% non‐fat milk, and then incubated with primary antibodies overnight at 4 °C. Subsequently, membranes were incubated with horseradish peroxidase‐conjugated antirabbit or antimouse IgG secondary antibody for 1 h at room temperature. The membranes were analyzed by a Tanon‐5200 Multi Gel Imaging Analysis System (Tanon) and quantified by ImageJ software."}, "MCF7 cells [3]": {"system": "MCF7 cells", "assay": "Scratch (wound-healing) assay", "format": "cell-based, human", "conditions": "MCF7, 12 h", "experimental": "(§2) MCF7 and MDA‐MB‐231 cells were seeded in 6‐well plates and cultured overnight. Once the cell density reached 90%, a line was scratched along the center of the 6‐well plate and images were taken randomly in the scratch domain under a microscope. The cells in each well were then treated with peptides of varying concentrations for 12 h, after which images were taken again in the scratch domain. The formula used to calculate the scratch healing rate was as follows: Scratch healing rate (%) = [(Scratch area at 0 h – Scratch area at 12 h) […] Scratch area at 0 h] × 100%."}, "MDA-MB-231 cells [4]": {"system": "MDA-MB-231 cells", "assay": "Scratch (wound-healing) assay", "format": "cell-based", "conditions": "MDA-MB-231, 12 h", "experimental": "as §2"}, "MCF7 cells [5]": {"system": "MCF7 cells", "assay": "Transwell cell migration analysis", "format": "cell-based, human", "conditions": "MCF7, 12 h", "experimental": "(§3) 600 µL DMEM complete medium was added to the lower chamber of the Transwell. Next, 2×10^4 cells in 100 µL DMEM medium, containing 1, 2, 5, 10, or 2 × 10^−5 M peptides, were added to the upper chamber of the Transwell. The cells were incubated for 12 h at 37 °C and 5% CO2. After the incubation period, the medium was discarded, and the chamber was washed with PBS. The cells were then fixed with 4% paraformaldehyde for 20 min. The upper chamber was subsequently soaked in crystal violet for 20 min, washed with PBS, and observed under a microscope for analysis."}, "MCF7 cells [6]": {"system": "MCF7 cells", "assay": "Western blot of Nur77, CD36 and FABP4", "format": "cell-based, human", "experimental": "as §1"}, "MDA-MB-231 cells [7]": {"system": "MDA-MB-231 cells", "assay": "Transwell cell migration analysis", "format": "cell-based", "conditions": "MDA-MB-231, 12 h", "experimental": "as §3"}},
  "note": "Where a SMILES comes first, the peptide text is derived from it. Bridges are numbered along the chain shown (N, C = ends). [ ]: non-standard residue; d: D form. S5 = C=CCCC[C@](C)(N)C(=O)O",
  "data": [
    {"smiles": "CCCCCCCC(=O)c1c(O)cc(O)cc1CC(=O)OCC", "note": "[Csn-B, cytosporone B, reference compound]", "values": [
      {"measurement": "Solubility in PBS", "setting": "Solubility test in PBS", "value": "≈ 1 mg mL^−1"}
    ]},
    {"smiles": "C[C@@H](O)[C@@H]1NC(=O)[C@H](CCCNC(=N)N)NC(=O)[C@H](CCCNC(=N)N)NC(=O)[C@@](C)(NC(=O)[C@H](Cc2ccccc2)NC(=O)CNC(=O)[C@H](CCCCN)NC(=O)[C@H](CS)NC(=O)CNC(=O)[C@H](CCC(=O)O)NC(=O)[C@@H](N)CS)CCCC=CCCC[C@@](C)(C(=O)N[C@@H](CCCNC(=N)N)C(=O)N[C@@H](Cc2ccc(O)cc2)C(N)=O)NC1=O", "note": "[S-CY14] (H-CEGCKGF[S5]RRT[S5]RY-NH2; staple 8-12)", "values": [
      {"measurement": "α-Helicity (CD)", "setting": "[1]", "value": 15.6, "unit": "%"},
      {"measurement": "Effect on NanoBiT luminescence (Nur77-PPARγ complex)", "setting": "Nur77-PPARγ complex", "value": "minimal effects on the luminescence"}
    ]},
    {"smiles": "CC[C@H](C)[C@H](NC(=O)[C@@H](NC(=O)[C@H](CCCNC(=N)N)NC(=O)[C@H](CCCNC(=N)N)NC(=O)[C@H](Cc1ccccc1)NC(=O)[C@H](Cc1ccccc1)NC(=O)CNC(=O)[C@H](CCCCN)NC(=O)[C@H](CS)NC(=O)CNC(=O)[C@H](CCC(=O)O)NC(=O)[C@@H](N)CS)[C@@H](C)O)C(=O)N[C@@H](CCCNC(=N)N)C(=O)N[C@@H](Cc1ccc(O)cc1)C(=O)N[C@@H](Cc1ccc(O)cc1)C(=O)NCC(=O)N[C@@H](CCCNC(=N)N)C(=O)N[C@@H](CCCCN)C(=O)N[C@@H](CCCCN)C(=O)N[C@@H](CCCNC(=N)N)C(=O)N[C@@H](CCCNC(=N)N)C(=O)N[C@@H](CCC(N)=O)C(=O)N[C@@H](CCCNC(=N)N)C(=O)N[C@@H](CCCNC(=N)N)C(=O)N[C@@H](CCCNC(=N)N)C(N)=O", "note": "[T-CY14] (H-CEGCKGFFRRTIRYYGRKKRRQRRR-NH2)", "values": [
      {"measurement": "half-life at 90.9 µM", "setting": "α-chymotrypsin", "value": 4.94, "unit": "min"},
      {"measurement": "CD36 and FABP4 protein expression (immunoblot)", "setting": "MDA-MB-231 cells [2]", "value": "had some effect, but its efficacy was much lower"},
      {"measurement": "Nur77 protein expression (immunoblot)", "setting": "MDA-MB-231 cells [2]", "value": "increase in Nur77 expression"},
      {"measurement": "Scratch healing", "setting": "MCF7 cells [3]", "value": "suppressed the scratch healing"},
      {"measurement": "Scratch healing", "setting": "MDA-MB-231 cells [4]", "value": "suppressed the scratch healing"},
      {"measurement": "Transwell transmigration", "setting": "MCF7 cells [5]", "value": "inhibited the transmigration"},
      {"measurement": "CD36 and FABP4 protein expression (immunoblot)", "setting": "MCF7 cells [6]", "value": "had some effect, but its efficacy was much lower"},
      {"measurement": "Nur77 protein expression (immunoblot)", "setting": "MCF7 cells [6]", "value": "increase in Nur77 expression"},
      {"measurement": "Transwell transmigration", "setting": "MDA-MB-231 cells [7]", "value": "inhibited the transmigration"}
    ]},
    {"smiles": "N=C(N)NCCC[C@H](NC(=O)[C@H](CCCNC(=N)N)NC(=O)[C@H](CCCNC(=N)N)NC(=O)[C@H](CCC(N)=O)NC(=O)[C@H](CCCNC(=N)N)NC(=O)[C@H](CCCNC(=N)N)NC(=O)[C@H](CCCCN)NC(=O)[C@H](CCCCN)NC(=O)[C@H](CCCNC(=N)N)NC(=O)CNC(=O)[C@@H](N)Cc1ccc(O)cc1)C(N)=O", "note": "[TAT, reference compound]", "values": [
      {"measurement": "Effect on NanoBiT luminescence (Nur77-PPARγ complex)", "setting": "Nur77-PPARγ complex", "value": "minimal effects on the luminescence"}
    ]}
  ]
}
